System: Caco-2 cell monolayers
Assay: Trans-epithelial transport of D-[14C]-mannitol and L-[3H]-proline in presence of DPV
Type: cell-based
Conditions: 30 μg/ml
Method: Trans-epithelial transport experiments were carried out.

SSRRARRSPRHLGSG (listed as Homo sapiens) [DPV10]
effect on amounts of D-[14C]-mannitol and L-[3H]-proline associated with the cells at the end of the experiment (Caco-2, 8 hours, FIG. 4): did not affect | effect on transport of D-[14C]-mannitol or L-[3H]-proline (Caco-2, FIG. 3): did not affect

From US7112562B2 (Diatos, S.A., priority 2001, dated 2006)
